Test results taken from ChEMBL document CHEMBL1201862, “PubChem BioAssay data set” (2004).
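Results reflect a 48-hour exposure of cells in 96-well plates to compound at five concentrations. The concentration for 50% growth inhibition is given as GI50.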 Active and inactive are the calls of the source. Rule as the data show it: active = GI50 up to about 1.1 µM and inactive = higher.

Tests used:
Assay in all cases: NCI tumour cell line growth inhibition, 48 h
[1] = tested on: SN12C
[2] = tested on: HOP-92
[3] = tested on: ACHN
[4] = tested on: U-251
[5] = tested on: TK-10
[6] = tested on: SK-OV-3
[7] = tested on: NCI-H226
[8] = tested on: HCT-116
[9] = tested on: SF-268
[10] = tested on: COLO 205
[11] = tested on: DMS-114
[12] = tested on: XF498
[13] = tested on: A498
[14] = tested on: KM-20L2
[15] = tested on: 786-0
[16] = tested on: RPMI-8226
[17] = tested on: SK-MEL-2
[18] = tested on: Malme-3M
[19] = tested on: SNB-75
[20] = tested on: K562
[21] = tested on: HL-60
[22] = tested on: NCI-H460
[23] = tested on: OVCAR-4
[24] = tested on: UACC-257
[25] = tested on: LXFL 529
[26] = tested on: NCI-H522
[27] = tested on: EKVX
[28] = tested on: CCRF-CEM
[29] = tested on: UO-31
[30] = tested on: SR
[31] = tested on: SF-295
[32] = tested on: HT-29
[33] = tested on: MOLT-4
[34] = tested on: NCI-H23
[35] = tested on: SK-MEL-28
[36] = tested on: KM12
[37] = tested on: SW-620
[38] = tested on: M19-MEL
[39] = tested on: SNB-19
[40] = tested on: OVCAR-5
[41] = tested on: SNB-78
[42] = tested on: HOP-62
[43] = tested on: DLD-1
[44] = tested on: OVCAR-3
[45] = tested on: A549
[46] = tested on: CAKI-1
[47] = tested on: OVCAR-8
[48] = tested on: HCC 2998
[49] = tested on: UACC-62
[50] = tested on: M14
[51] = tested on: DMS-273
[52] = tested on: SF-539
[53] = tested on: LOX IMVI
[54] = tested on: IGROV-1
[55] = tested on: RXF 393
[56] = tested on: SK-MEL-5
[57] = tested on: HCT-15
[58] = tested on: HOP-18

COc1cc2ccn3c4cc(OC)c(OC)cc4cc3c2cc1OC
GI50 [1]: > 100 µM (inactive)
GI50 [2]: > 100 µM (inactive)
GI50 [3]: > 100 µM (inactive)
GI50 [4]: > 100 µM (inactive)
GI50 [5]: > 100 µM (inactive)
GI50 [6]: > 100 µM (inactive)
GI50 [7]: > 100 µM (inactive)
GI50 [8]: 32.8 µM (inactive)
GI50 [9]: > 100 µM (inactive)
GI50 [10]: > 100 µM (inactive)
GI50 [11]: 50.6 µM (inactive)
GI50 [12]: 7.16 µM (inactive)
GI50 [13]: > 100 µM (inactive)
GI50 [14]: > 100 µM (inactive)
GI50 [15]: 33.5 µM (inactive)
GI50 [16]: 5.6 µM (inactive)
GI50 [17]: > 100 µM (inactive)
GI50 [18]: > 100 µM (inactive)
GI50 [19]: > 100 µM (inactive)
GI50 [20]: > 100 µM (inactive)
GI50 [21]: 4.83 µM (inactive)
GI50 [22]: > 100 µM (inactive)
GI50 [23]: > 100 µM (inactive)
GI50 [24]: > 100 µM (inactive)
GI50 [25]: 78.7 µM (inactive)
GI50 [26]: 11.3 µM (inactive)
GI50 [27]: 98.2 µM (inactive)
GI50 [28]: > 100 µM (inactive)
GI50 [29]: > 100 µM (inactive)
GI50 [30]: > 100 µM (inactive)
GI50 [31]: > 100 µM (inactive)
GI50 [32]: > 100 µM (inactive)
GI50 [33]: > 100 µM (inactive)
GI50 [34]: > 100 µM (inactive)
GI50 [35]: > 100 µM (inactive)
GI50 [36]: > 100 µM (inactive)
GI50 [37]: > 100 µM (inactive)
GI50 [38]: > 100 µM (inactive)
GI50 [39]: > 100 µM (inactive)
GI50 [40]: > 100 µM (inactive)
GI50 [41]: > 100 µM (inactive)
GI50 [42]: > 100 µM (inactive)
GI50 [43]: > 100 µM (inactive)
GI50 [44]: 58.6 µM (inactive)
GI50 [45]: > 100 µM (inactive)
GI50 [46]: 29.6 µM (inactive)
GI50 [47]: > 100 µM (inactive)
GI50 [48]: > 100 µM (inactive)
GI50 [49]: > 100 µM (inactive)
GI50 [50]: 63.1 µM (inactive)

O=C(NC12CC3CC(CC(F)(C3)C1)C2)c1ccccc1
GI50 [2]: > 100 µM (inactive)
GI50 [3]: > 100 µM (inactive)
GI50 [4]: > 100 µM (inactive)
GI50 [5]: > 100 µM (inactive)
GI50 [6]: > 100 µM (inactive)
GI50 [8]: > 100 µM (inactive)
GI50 [51]: > 100 µM (inactive)
GI50 [10]: > 100 µM (inactive)
GI50 [11]: > 100 µM (inactive)
GI50 [12]: > 100 µM (inactive)
GI50 [13]: > 100 µM (inactive)
GI50 [52]: > 100 µM (inactive)
GI50 [53]: > 100 µM (inactive)
GI50 [54]: > 100 µM (inactive)
GI50 [14]: > 100 µM (inactive)
GI50 [15]: > 100 µM (inactive)
GI50 [16]: > 100 µM (inactive)
GI50 [17]: > 100 µM (inactive)
GI50 [18]: > 100 µM (inactive)
GI50 [19]: 43.9 µM (inactive)
GI50 [20]: > 100 µM (inactive)
GI50 [21]: > 100 µM (inactive)
GI50 [22]: > 100 µM (inactive)
GI50 [55]: > 100 µM (inactive)
GI50 [24]: > 100 µM (inactive)
GI50 [25]: > 100 µM (inactive)
GI50 [26]: > 100 µM (inactive)
GI50 [27]: > 100 µM (inactive)
GI50 [28]: > 100 µM (inactive)
GI50 [29]: 59.2 µM (inactive)
GI50 [32]: > 100 µM (inactive)
GI50 [33]: > 100 µM (inactive)
GI50 [34]: > 100 µM (inactive)
GI50 [35]: > 100 µM (inactive)
GI50 [36]: > 100 µM (inactive)
GI50 [37]: > 100 µM (inactive)
GI50 [38]: > 100 µM (inactive)
GI50 [39]: > 100 µM (inactive)
GI50 [40]: > 100 µM (inactive)
GI50 [41]: > 100 µM (inactive)
GI50 [42]: > 100 µM (inactive)
GI50 [43]: > 100 µM (inactive)
GI50 [44]: > 100 µM (inactive)
GI50 [45]: > 100 µM (inactive)
GI50 [47]: > 100 µM (inactive)
GI50 [48]: > 100 µM (inactive)
GI50 [49]: > 100 µM (inactive)
GI50 [50]: > 100 µM (inactive)

COc1ccc(/C=N/N=C(\N)NO)cc1O
GI50 [1]: 30.9 µM (inactive)
GI50 [2]: 20.6 µM (inactive)
GI50 [4]: 62.5 µM (inactive)
GI50 [6]: 80.2 µM (inactive)
GI50 [7]: 33.4 µM (inactive)
GI50 [8]: 37.5 µM (inactive)
GI50 [9]: 32 µM (inactive)
GI50 [10]: 25.8 µM (inactive)
GI50 [11]: 30.2 µM (inactive)
GI50 [52]: 31.2 µM (inactive)
GI50 [53]: 26.7 µM (inactive)
GI50 [54]: 84.1 µM (inactive)
GI50 [15]: 18.5 µM (inactive)
GI50 [16]: > 100 µM (inactive)
GI50 [17]: 76.4 µM (inactive)
GI50 [18]: 16.6 µM (inactive)
GI50 [20]: 82.8 µM (inactive)
GI50 [56]: 31.9 µM (inactive)
GI50 [22]: 25.5 µM (inactive)
GI50 [23]: 45.4 µM (inactive)
GI50 [55]: 41.7 µM (inactive)
GI50 [25]: > 100 µM (inactive)
GI50 [26]: > 10 µM (inactive)
GI50 [27]: 29.3 µM (inactive)
GI50 [28]: > 100 µM (inactive)
GI50 [29]: 45 µM (inactive)
GI50 [32]: 40.9 µM (inactive)
GI50 [33]: > 100 µM (inactive)
GI50 [34]: 31.9 µM (inactive)
GI50 [35]: 49.8 µM (inactive)
GI50 [36]: 45.8 µM (inactive)
GI50 [57]: 42.9 µM
GI50 [37]: 44.7 µM (inactive)
GI50 [39]: > 100 µM (inactive)
GI50 [40]: > 100 µM (inactive)
GI50 [41]: > 100 µM (inactive)
GI50 [58]: > 100 µM (inactive)
GI50 [43]: 33.8 µM (inactive)
GI50 [45]: 27.6 µM (inactive)
GI50 [46]: 48.2 µM (inactive)
GI50 [48]: 17.5 µM (inactive)
GI50 [49]: 31.1 µM (inactive)
